# Where two headings read alike, the source gives them in different places.
# Experiments:
# [1] = test system: pCDK9, pSer2, N-MYC, C-MYC and MCL-1; assay: Target modulation in prostate cancer patient samples; assay type: cell-based; conditions: newly diagnosed and resistant prostate cancer patient samples
# hERG channel = biological target: T1, hERG channel (Homo sapiens, UniProt Q12809); assay: Predictor hERG Fluorescence Polarization Assay; assay type: binding
# T1 construct: purchased
# From the text: The Predictor™ hERG Fluorescence Polarization Assay Kit was used to perform hERG channel biochemical binding studies in the absence of radioligand. Assay performance was validated with a panel of established hERG channel blockers.
# CDK9 + Cyclin T1 = CDK9 + Cyclin T1 (Homo sapiens, UniProt P50750); assay: cell-based
# Prostate cancer cells = assay: Colony formation assay 2; assay type: cell-based; conditions: 0.123 to 10 μM for 72 hours
# C4-2 [2] = assay: 2D CellTiter-Glo cell viability assay; assay type: cell-based, human
# Protocol: CellTiter-Glo® 2.0 Luminescent cell viability assay reagent was purchased from Promega and 22Rv1, LASCPC-01, C4-2, C4-2B and NCI-H660, DU-145, PC-3 and LNCap cell lines were obtained from ATCC and a clinical core facility at Huntsman Cancer Institute. […] The results of cell viability were obtained and IC50 values were calculated (see Table 5, below) showing sub-micromolar cell killing of these prostate cancer cells.
# [3] = Pharmacokinetic study in male Beagle dogs; assay type: in vivo; conditions: dog, plasma; for Tmax: read-out: Tmax (hours), median (min-max); for Vd: male, Beagle, iv, 1 mg/kg
# Protocol: Last time of mean concentrations was 24 hours following intravenous bolus injection.
# [4] = test system: CDK9 downstream targets in 22Rv1 and LASCPC-01; assay: Western blot analysis of nuclear extract; assay type: cell-based
# Protocol: Cytoplasmic and nuclear extracts from these cells were separated using NE-PER Nuclear and Cytoplasmic Extraction Kit (ThermoFisher). […] Relative protein expression of CDK9, N-Myc and other downstream signaling was quantified by GraphPad Prism 8 and ImageJ Software RT-PCR Gene.
# Then cells were harvested with PBS and fixed with ice-cold 70% ethanol at −20° C. overnight. The cells were then washed with ice-cold PBS 2× and then re-suspended in DAPI staining buffer and incubated in the dark for 30 minutes. The cells were analyzed using BD Fortessa flow cytometer and cell cycle distribution was analyzed using FlowJo and GraphPad Prism 8 Software.
# [5] = test system: RWPE-1 Normal Prostate Cells; assay: LDH-Glo cytotoxicity assay in normal prostate cells; assay type: cell-based; conditions: Homo sapiens, 72 hours
# Protocol: Multiplexing the LDH-Glo Cytotoxicity Assay and CellTiter-Glo 2D Cell Viability Assay. […] Change in toxicity was measured using the LDH-Glo Cytotoxicity Assay by combining 50 μL diluted samples with 50 μL LDH Detection Reagent and recording luminescence after 1 hour incubation. After samples were removed for LDH measurement, an equal volume of CellTiter Glo 2D Reagent was added to the remaining cell suspension and luminescence was recorded after 30-minute incubation period.
# CDK7/cyclinH = biological target: T2, CDK7/cyclinH (Homo sapiens, UniProt P50613); assay: CDK family kinase profiling, radioisotope-based assay (33P); assay type: biochemical; conditions: read-out: 10-dose IC50
# T2 construct: purchased Reaction Biology
# Protocol: (§1) CDKs family kinases profiling assays were performed with DiscoveRx Matrix of Kds KINOMEscan (KdELECT) and Reaction Biology using miniaturized radioisotope-based assay platform (^33P). IC50 value estimated based on the best curve fitting available.
# CDK9/cyclinT = biological target: T3, CDK9/cyclinT (Homo sapiens, UniProt P50750); assay: as above; assay type: biochemical; conditions: cell-free, read-out: IC50 against CDK9
# T3 construct: purchased Reaction Biology
# Protocol: as §1
# CDK5/P21 = biological target: T4, CDK5/P21 (Homo sapiens, UniProt Q00535); assay: as above; assay type: biochemical; conditions: read-out: 10-dose IC50
# T4 construct: purchased Reaction Biology
# Protocol: as §1
# CDK4/cyclinD = CDK4/cyclinD (Homo sapiens, UniProt P11802); assay: as above; assay type: biochemical; conditions: read-out: 10-dose IC50
# Protocol: as §1
# [6] = Pharmacokinetic study in mice; conditions: mouse, in vivo, po
# TAOK3 = TAOK3 (Homo sapiens, UniProt Q9H2K8); assay: scanMAX panel and Kd follow-up; assay type: binding
# TAOK1 = TAOK1 (Homo sapiens, UniProt Q7L7X3); assay: scanMAX panel and Kd follow-up; assay type: binding
# [7] = test system: 22RV1 induced neuroendocrine prostate cancer (NEPC) CDX; assay: In vivo tumor efficacy study, 22Rv1 NEPC CDX
# Protocol: 22Rv1 cells were cultured in RPMI supplemented with 10% FBS and 1% P/S, in a humidified incubator at 37° C. and 5% CO2. Nu/nu Balb/c homozygous mice were procured through Jackson laboratory (Strain 002019). Mice were fed Teklad irradiated (sterilized) mouse diet and bedded with Teklad irradiated (sterilized) corncob bedding from Envigo (Indianapolis, IN). Mice were housed in Optimice carousel sterile quarters with filtered air supply in disposable cages from Animal Care Systems, Inc. (Centennial, CO). A 12-hour light/12-hour dark light cycle is observed, with animal handling only taking place during the light cycle.
# 22Rv1 Implantation: On the day of implantation, cells were trypsinized and allowed to detach from flasks. Trypsin was then neutralized with complete media and cells were spun at 300×g. Media was aspirated and cells were re-suspended in 50:50 Cultrex RPMI (no supplementation) at a concentration of 5×10^7 cells/mL. A volume of 100 μL was injected into the right hind flank of each animal (a total of 5×10^6 cells per mouse). Cells were checked for viability using trypan blue exclusion and found to be >98% viable.
# • All mice were dosed orally, and the observation duration was 21 days […]
# Tumor volumes: Tumor volumes were measured by digital caliper, and volume was calculated using the formula [Width^2×Length]/2. All tumor volume measurements are recorded. […]
# C4-2 [8] = assay: Annexin V/7-AAD apoptosis assay; assay type: cell-based; conditions: C4-2, treated for 72 hours
# Sequence of TAOK3 (Q9H2K8 whole entry): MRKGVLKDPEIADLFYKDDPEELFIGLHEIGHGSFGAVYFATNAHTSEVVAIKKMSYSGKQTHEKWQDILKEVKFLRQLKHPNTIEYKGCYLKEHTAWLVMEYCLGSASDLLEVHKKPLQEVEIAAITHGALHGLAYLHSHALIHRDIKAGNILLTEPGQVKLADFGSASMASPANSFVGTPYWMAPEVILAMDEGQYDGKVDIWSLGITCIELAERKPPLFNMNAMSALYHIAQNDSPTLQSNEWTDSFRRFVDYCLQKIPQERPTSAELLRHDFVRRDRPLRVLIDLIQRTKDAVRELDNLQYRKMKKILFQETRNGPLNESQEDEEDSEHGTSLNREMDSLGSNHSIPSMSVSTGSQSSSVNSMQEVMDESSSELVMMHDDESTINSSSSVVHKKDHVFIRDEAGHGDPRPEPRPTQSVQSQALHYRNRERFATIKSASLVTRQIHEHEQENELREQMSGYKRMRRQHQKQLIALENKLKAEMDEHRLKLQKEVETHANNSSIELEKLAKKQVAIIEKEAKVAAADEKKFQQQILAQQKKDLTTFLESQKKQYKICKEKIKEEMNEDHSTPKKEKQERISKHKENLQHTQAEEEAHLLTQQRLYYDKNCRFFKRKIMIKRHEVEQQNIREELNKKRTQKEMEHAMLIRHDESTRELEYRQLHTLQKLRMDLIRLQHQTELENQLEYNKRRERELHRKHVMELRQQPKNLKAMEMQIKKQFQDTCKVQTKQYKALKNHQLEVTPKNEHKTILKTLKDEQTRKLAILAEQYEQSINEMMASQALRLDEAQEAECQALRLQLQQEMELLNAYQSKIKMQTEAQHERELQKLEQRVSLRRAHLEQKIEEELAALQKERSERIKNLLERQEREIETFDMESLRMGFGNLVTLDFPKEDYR
# T1 sequence (Q12809 whole entry): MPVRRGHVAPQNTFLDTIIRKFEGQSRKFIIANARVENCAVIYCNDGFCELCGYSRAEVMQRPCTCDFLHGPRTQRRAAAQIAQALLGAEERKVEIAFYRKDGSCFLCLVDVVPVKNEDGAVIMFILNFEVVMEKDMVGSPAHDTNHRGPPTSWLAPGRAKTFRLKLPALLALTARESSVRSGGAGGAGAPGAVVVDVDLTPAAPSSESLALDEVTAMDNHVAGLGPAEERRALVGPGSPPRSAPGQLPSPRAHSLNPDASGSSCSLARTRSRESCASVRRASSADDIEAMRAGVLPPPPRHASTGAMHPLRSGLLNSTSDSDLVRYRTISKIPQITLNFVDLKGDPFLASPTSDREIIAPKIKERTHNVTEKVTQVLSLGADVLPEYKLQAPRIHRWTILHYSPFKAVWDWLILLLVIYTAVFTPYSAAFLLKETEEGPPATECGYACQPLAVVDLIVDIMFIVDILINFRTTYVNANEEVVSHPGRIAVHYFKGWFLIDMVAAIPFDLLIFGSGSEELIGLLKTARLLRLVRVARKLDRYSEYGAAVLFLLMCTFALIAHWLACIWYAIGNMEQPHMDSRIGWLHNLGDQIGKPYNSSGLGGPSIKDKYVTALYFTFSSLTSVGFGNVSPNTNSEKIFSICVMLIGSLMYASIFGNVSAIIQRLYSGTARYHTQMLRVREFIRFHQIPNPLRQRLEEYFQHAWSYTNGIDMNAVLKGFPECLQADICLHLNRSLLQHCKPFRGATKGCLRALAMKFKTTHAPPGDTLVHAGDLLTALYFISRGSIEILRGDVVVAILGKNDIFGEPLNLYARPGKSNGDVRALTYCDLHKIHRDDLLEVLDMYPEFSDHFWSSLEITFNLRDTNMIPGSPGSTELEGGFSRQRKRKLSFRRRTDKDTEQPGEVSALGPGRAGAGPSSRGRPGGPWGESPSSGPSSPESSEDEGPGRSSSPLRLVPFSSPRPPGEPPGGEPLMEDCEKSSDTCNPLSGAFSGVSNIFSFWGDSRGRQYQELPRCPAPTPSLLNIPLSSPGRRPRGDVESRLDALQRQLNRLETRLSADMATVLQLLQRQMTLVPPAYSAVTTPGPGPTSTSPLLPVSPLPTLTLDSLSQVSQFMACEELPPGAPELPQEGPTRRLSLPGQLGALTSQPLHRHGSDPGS
# Sequence of TAOK1 (Q7L7X3 whole entry): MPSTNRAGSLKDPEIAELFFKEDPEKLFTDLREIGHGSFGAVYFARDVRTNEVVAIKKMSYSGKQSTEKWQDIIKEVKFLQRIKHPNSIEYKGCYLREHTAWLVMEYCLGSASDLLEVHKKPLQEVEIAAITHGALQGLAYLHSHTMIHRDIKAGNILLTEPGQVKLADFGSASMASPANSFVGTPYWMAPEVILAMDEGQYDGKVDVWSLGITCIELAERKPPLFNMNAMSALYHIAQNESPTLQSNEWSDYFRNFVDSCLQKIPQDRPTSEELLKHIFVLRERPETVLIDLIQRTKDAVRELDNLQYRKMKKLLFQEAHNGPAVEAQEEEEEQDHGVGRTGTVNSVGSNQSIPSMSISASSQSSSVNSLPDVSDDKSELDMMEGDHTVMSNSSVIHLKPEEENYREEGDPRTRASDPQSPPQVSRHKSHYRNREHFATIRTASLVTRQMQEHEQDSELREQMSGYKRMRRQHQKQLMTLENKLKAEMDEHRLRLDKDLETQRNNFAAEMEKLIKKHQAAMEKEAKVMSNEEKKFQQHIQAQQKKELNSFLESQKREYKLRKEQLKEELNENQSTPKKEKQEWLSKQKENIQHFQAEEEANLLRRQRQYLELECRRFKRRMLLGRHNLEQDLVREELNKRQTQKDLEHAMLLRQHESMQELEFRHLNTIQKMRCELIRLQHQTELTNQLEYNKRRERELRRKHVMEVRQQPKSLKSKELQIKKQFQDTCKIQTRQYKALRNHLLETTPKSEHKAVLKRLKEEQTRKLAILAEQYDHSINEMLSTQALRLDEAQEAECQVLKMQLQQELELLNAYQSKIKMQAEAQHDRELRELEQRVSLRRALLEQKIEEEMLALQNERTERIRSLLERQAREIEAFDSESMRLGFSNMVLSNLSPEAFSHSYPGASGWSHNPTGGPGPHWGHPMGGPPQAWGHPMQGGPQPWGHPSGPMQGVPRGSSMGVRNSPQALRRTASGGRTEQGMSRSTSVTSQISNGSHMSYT
# T4 sequence (Q00535 whole entry): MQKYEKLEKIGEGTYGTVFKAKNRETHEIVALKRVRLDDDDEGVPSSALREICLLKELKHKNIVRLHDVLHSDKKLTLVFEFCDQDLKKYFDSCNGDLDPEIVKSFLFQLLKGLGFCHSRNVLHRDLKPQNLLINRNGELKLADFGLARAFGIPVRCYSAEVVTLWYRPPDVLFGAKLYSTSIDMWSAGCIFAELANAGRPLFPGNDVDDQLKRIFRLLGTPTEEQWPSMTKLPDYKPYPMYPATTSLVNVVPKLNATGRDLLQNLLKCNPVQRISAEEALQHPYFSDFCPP
# T4 sequence (Q15078 99-307 partner limits assumed): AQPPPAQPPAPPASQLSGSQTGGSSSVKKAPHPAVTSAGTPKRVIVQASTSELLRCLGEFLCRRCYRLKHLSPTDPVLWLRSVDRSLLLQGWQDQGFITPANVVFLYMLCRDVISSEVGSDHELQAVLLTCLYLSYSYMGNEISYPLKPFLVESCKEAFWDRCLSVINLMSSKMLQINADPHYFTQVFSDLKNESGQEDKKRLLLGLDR
# T2 sequence (P50613 whole entry): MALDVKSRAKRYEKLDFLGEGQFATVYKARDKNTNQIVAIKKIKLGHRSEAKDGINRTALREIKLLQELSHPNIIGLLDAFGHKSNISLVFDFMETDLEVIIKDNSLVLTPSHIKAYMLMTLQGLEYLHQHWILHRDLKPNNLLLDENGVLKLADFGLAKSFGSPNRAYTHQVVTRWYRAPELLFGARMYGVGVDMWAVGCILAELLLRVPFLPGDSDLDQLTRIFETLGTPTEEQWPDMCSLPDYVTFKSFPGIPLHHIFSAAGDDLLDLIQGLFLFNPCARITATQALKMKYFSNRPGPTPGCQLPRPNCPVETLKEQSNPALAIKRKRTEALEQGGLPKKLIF
# T2 sequence (P51946 whole entry partner): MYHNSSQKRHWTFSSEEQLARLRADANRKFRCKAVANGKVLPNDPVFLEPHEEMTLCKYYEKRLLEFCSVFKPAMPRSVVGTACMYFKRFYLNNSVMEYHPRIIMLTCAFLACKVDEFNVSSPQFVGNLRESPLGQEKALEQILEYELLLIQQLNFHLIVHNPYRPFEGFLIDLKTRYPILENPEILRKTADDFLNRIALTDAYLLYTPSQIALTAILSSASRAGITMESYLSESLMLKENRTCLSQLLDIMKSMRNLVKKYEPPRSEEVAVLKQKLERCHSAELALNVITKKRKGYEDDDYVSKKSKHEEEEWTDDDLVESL
# T2 sequence (P51948 whole entry partner): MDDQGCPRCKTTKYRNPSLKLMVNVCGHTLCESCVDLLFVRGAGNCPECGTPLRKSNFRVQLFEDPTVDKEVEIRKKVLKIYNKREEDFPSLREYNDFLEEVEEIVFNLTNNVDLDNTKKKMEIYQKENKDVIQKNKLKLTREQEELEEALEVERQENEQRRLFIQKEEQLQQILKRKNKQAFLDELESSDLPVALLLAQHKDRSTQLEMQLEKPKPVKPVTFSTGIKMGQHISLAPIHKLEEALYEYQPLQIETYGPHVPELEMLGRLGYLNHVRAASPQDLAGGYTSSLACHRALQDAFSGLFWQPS
compound,measurement,setting,value
"CC(C)c1c2cc(-c3ccnc(N[C@H]4CC[C@H](N)C4)n3)ccc2nn1C [Compound I-2, (1S,3S)-[3-[4-(3-isopropyl-2-methylindazol-5-yl)pyrimidin-2-yl]aminocyclopentan-1-yl]-1,3-diamine]","pCDK9, pSer2 and downstream N-MYC, C-MYC and MCL-1",[1],reduced
same,hERG activity,hERG channel,no hERG activity
same,IC50,hERG channel; fluorescence polarization,57800 nM
same,IC50,CDK9 + Cyclin T1,15.6 nM
same,colony formation,Prostate cancer cells,complete inhibition of colony formation
same,IC50,"C4-2 [2]; C4-2, 72 hours",28.2 nM
same,IC50,"C4-2 [2]; Homo sapiens, C4-2, 72 h",28 nM
same,half-life,[3]; IV 1 mg/kg,4.26 h
same,half-life,[3]; oral 3 mg/kg,5.81 h
same,AUC,[3]; IV 1 mg/kg,529 ± 200 ng·h/mL
same,AUC(0-inf),[3]; IV 1 mg/kg,566 ± 191 ng·h/mL
same,MRT,[3]; IV 1 mg/kg,3.82 ± 1.25 h
same,clearance,[3]; IV 1 mg/kg,31.8 ± 10.7 mL/min/kg
same,C0,"[3]; IV 1 mg/kg, extrapolated concentration at time zero",312 ± 98.3 ng/mL
same,Tmax,[3]; IV 1 mg/kg,0.08 h
same,AUC,[3]; oral 3 mg/kg,1300 ± 233 ng·h/mL
same,AUC(0-inf),[3]; oral 3 mg/kg,1340 ± 242 ng·h/mL
same,Cmax,[3]; oral 3 mg/kg,373 ± 238 ng/mL
same,MRT,[3]; oral 3 mg/kg,4.92 ± 0.97 h
same,bioavailability,"[3]; oral 3 mg/kg vs IV 1 mg/kg, from nominal doses and AUCinf, read-out: % F (oral bioavailability)",83 ± 22%
same,Tmax,[3]; oral 3 mg/kg,1 h
same,Vd,"[3]; IV 1 mg/kg, read-out: Vd",11.3 ± 2.93 L/kg
same,Vd,"[3]; IV 1 mg/kg, read-out: Vss",9.35 ± 2.74 L/kg
same,CDK9 downstream targets (Western blot),[4],inhibited the CDK9 downstream targets
same,IC50,[5],6700 nM
same,IC50,CDK7/cyclinH,119 nM
same,IC50,CDK9/cyclinT,< 5 nM
same,IC50,CDK5/P21,245 nM
same,IC50,CDK4/cyclinD,22.8 nM
same,bioavailability,[6],28%
same,Kd,TAOK3; TAOK3,9.2 nM
same,remaining binding at 1 µM,"TAOK3; TAOK3, 1 μM, read-out: % of control activity",0 to 1%
same,Kd,TAOK1; TAOK1,19 nM
same,remaining binding at 1 µM,"TAOK1; TAOK1, 1 μM, read-out: % of control activity",0 to 1%
same,tumor growth,"[7]; 22Rv1, 30, 50, 65 mg/kg orally once daily, 21 days",inhibit tumor growth in a dose dependent manner
same,tolerability,"[7]; 22Rv1 study, >50 mg/kg dosing levels",Tolerability issues
same,cell death,C4-2 [8],84%

# Source: patent US20240150322A1, “CDK9 Inhibitors” (Biolexis Therapeutics, Inc., priority 2022, published 2024)
